{
  "source": "paper PMC5469451",
  "about": "“Identification of compounds that suppress Toxoplasma gondii tachyzoites and bradyzoites” (PLoS ONE, 2017)",
  "key": {"[1]": {"system": "PLK/DLUC_1C9 tachyzoites in Vero cells", "assay": "Primary screening: T. gondii growth assay, Renilla luciferase", "format": "cell-based, Toxoplasma gondii", "conditions": "48 h; for inhibition at 10 µM: Toxoplasma gondii, read-out: Parasite Inhibition (%)", "experimental": "In the primary screening, purified PLK/DLULC_1C9 tachyzoites were incubated with Vero cells at a multiplicity of infection (MOI) of 0.5. After a 2-h incubation, the infected host cells were trypsinized to obtain a cell suspension and then these suspended infected cells were inoculated into 96-well optical bottom plates containing the compound library. Each well was inoculated with 2500 cells in 25 μL of culture medium. […] Following cell inoculation, each well therefore contained 0.5% DMSO and 10 μM compound. After 48 h of culture, Renilla luciferase activity was measured by using Renilla-Glo (Promega, WI, USA) following the manufacturer’s instructions. […] The Z’-value for each plate was calculated from the Renilla luciferase activity in the negative and positive control wells."}, "[2]": {"assay": "Host cell cytotoxicity assay (Cell-Titer Glo), HFF cells", "format": "cell-based, human", "conditions": "human", "experimental": "(§1) Vero cells and HFF cells were both used as host cells because both cell types were used for the parasite screening. After incubation for 48 h in DMEM supplemented with 5% FBS, L-glutamine, penicillin, and streptomycin, cell viabilities were measured by using a Cell-Titer Glo kit (Promega) following the manufacturer’s instructions. Control wells were treated with DMSO alone in culture medium to calculate the 100% viability for each cell type."}, "[3]": {"system": "RH-2F tachyzoites (type I strain) in HFF cells", "assay": "Confirmatory screening: RH-2F β-galactosidase growth assay in HFF cells", "format": "cell-based, Toxoplasma gondii", "conditions": "48 h, 48 h; for inhibition at 2.5 µM / inhibition at 25 µM: Toxoplasma gondii, read-out: Parasite inhibition (%)", "experimental": "In the confirmatory screening, we utilize an RH strain β-galactosidase reporter parasite termed RH-2F (a type I strain). Briefly, RH-2F parasites were purified from freshly lysed infected host cells and used to infect confluent HFF cells cultured in 96-well plates. Five hundred parasites were added to each well, along with each test compound and 50 μL of culture medium. Plates were then incubated for 10 min at room temperature followed by an incubation at 37°C for 48 h in a CO2 incubator.\nTo measure the effects of tanshinone IIA and hydroxyzine on intracellular parasite growth, parasites were allowed to invade for 2 h, uninvaded parasites were washed away, and medium with compounds was added. After 48 h, the plates were frozen at -80°C. Plates were then thawed just prior to the measurement of beta-galactosidase activity. Beta-Glo (Promega) was used to measure β-galactosidase activity following the manufacturer’s instructions."}, "[4]": {"assay": "Host cell cytotoxicity assay (Cell-Titer Glo), Vero cells", "format": "cell-based", "conditions": "African green monkey", "experimental": "as §1, with “Host cells were treated with compounds at the same concentration used for screening (i.e., 0.5% DMSO and 10 μM compound). Vero” for “Vero”"}, "Vero cells": {"system": "Vero cells", "assay": "Host cell cytotoxicity assay (Cell-Titer Glo), Vero cells", "format": "cell-based", "experimental": "as §1, with “Host cells were treated with compounds at the same concentration used for screening (i.e., 0.5% DMSO and 10 μM compound). Vero” for “Vero”"}, "HFF cells": {"system": "HFF cells", "assay": "Host cell cytotoxicity assay (Cell-Titer Glo), HFF cells", "format": "cell-based, human", "experimental": "as §1"}, "[5]": {"conditions": "10 μM, PLK/DLUC_1C9 in Vero cells, DMSO = 0%, 10 μM pyrimethamine = 100%"}, "[6]": {"conditions": "HFF, 2.5 μM, RH-2F in HFF, compared with 10 μM pyrimethamine"}, "[7]": {"conditions": "HFF, 25 μM, RH-2F in HFF, compared with 10 μM pyrimethamine"}, "[8]": {"conditions": "2.5 μM, RH-2F in HFF, compared with 10 μM pyrimethamine"}, "[9]": {"conditions": "25 μM, RH-2F in HFF, compared with 10 μM pyrimethamine"}},
  "note": "Like-named read-outs stand apart in the source and are kept apart here. Where a SMILES comes first, the peptide text is derived from it. The star is where a group is joined. Boc = CC(C)(C)OC(=O)*",
  "data": [
    {"smiles": "O=C(/C=C/c1ccc(O)c(O)c1)c1ccc(O)cc1O", "note": "[Butein]", "values": [
      {"measurement": "inhibition at 10 µM", "setting": "[1]; [5]", "result": 96, "unit": "%"},
      {"measurement": "viability at 48 h, 2.5 µM", "setting": "[2]; Host cell viability (%)", "result": 102, "unit": "%"},
      {"measurement": "viability at 48 h, 25 µM", "setting": "[2]; Host cell viability (%)", "result": 91, "unit": "%"},
      {"measurement": "inhibition at 2.5 µM", "setting": "[3]; [6]", "result": -11, "unit": "%"},
      {"measurement": "inhibition at 25 µM", "setting": "[3]; [7]", "result": 110, "unit": "%"},
      {"measurement": "viability at 48 h, 10 µM", "setting": "[4]", "result": 93, "unit": "%"}
    ]},
    {"smiles": "COc1ccc(C(=O)/C(Cc2cc(OC)c(OC)c(OC)c2)=C(\\C(=O)O)c2ccc3c(c2)OCO3)cc1", "note": "[(2Z)-2-(1,3-Benzodioxol-5-yl)-4-(4-methoxyphenyl)-4-oxo-3-(3,4,5-trimethoxybenzyl)-2-butenoic acid]", "values": [
      {"measurement": "inhibition at 10 µM", "setting": "[1]; [5]", "result": 93, "unit": "%"},
      {"measurement": "viability at 48 h, 10 µM", "setting": "[4]", "result": 85, "unit": "%"}
    ]},
    {"smiles": "CC[N+](C)(CC)CCC[n+]1c(-c2ccccc2)c2cc(N)ccc2c2ccc(N)cc21.[I-].[I-]", "note": "[Propidium Iodide]", "values": [
      {"measurement": "Parasite inhibition (%)", "setting": "[1]; [5]", "result": 91, "unit": "%"},
      {"measurement": "Host Viability (%)", "setting": "Vero cells; 10 µM", "result": 91, "unit": "%"}
    ]},
    {"smiles": "COC(=O)C1=C(C)NC(C)=C(C(=O)OCCCN2CCC(c3ccccc3)(c3ccccc3)CC2)[C@H]1c1cccc([N+](=O)[O-])c1", "note": "[Niguldipine]", "values": [
      {"measurement": "inhibition at 10 µM", "setting": "[1]; Vero", "result": 103, "unit": "%"},
      {"measurement": "viability at 2.5 µM", "setting": "[2]", "result": 99, "unit": "%"},
      {"measurement": "viability at 25 µM", "setting": "[2]", "result": 84, "unit": "%"},
      {"measurement": "inhibition at 2.5 µM", "setting": "[3]; HFF", "result": -19, "unit": "%"},
      {"measurement": "inhibition at 25 µM", "setting": "[3]; HFF", "result": 96, "unit": "%"},
      {"measurement": "viability at 10 µM", "setting": "[4]", "result": 77, "unit": "%"}
    ]},
    {"smiles": "CC(C)C[C@H]1C(=O)N2CCC[C@H]2[C@]2(O)O[C@](NC(=O)[C@@H]3C=C4c5cccc6[nH]c(Br)c(c56)C[C@H]4N(C)C3)(C(C)C)C(=O)N12", "note": "[Bromocriptine]", "values": [
      {"measurement": "inhibition at 10 µM", "setting": "[1]; [5]", "result": 105, "unit": "%"},
      {"measurement": "viability at 48 h, 2.5 µM", "setting": "[2]; HFF cells, 2.5 μM, 48 h, HFF cells, read-out: Host cell viability (%)", "result": 98, "unit": "%"},
      {"measurement": "viability at 48 h, 25 µM", "setting": "[2]; HFF cells, 25 μM, 48 h, HFF cells, compared with DMSO, read-out: Host cell viability (%)", "result": 93, "unit": "%"},
      {"measurement": "inhibition at 2.5 µM", "setting": "[3]; [8]", "result": -8, "unit": "%"},
      {"measurement": "inhibition at 25 µM", "setting": "[3]; [9]", "result": 110, "unit": "%"},
      {"measurement": "viability at 48 h, 10 µM", "setting": "[4]; 10 μM, 48 h, Vero cells, DMSO = 100%, read-out: Host Viability (%)", "result": 85, "unit": "%"}
    ]},
    {"smiles": "O=c1[nH]c2ccccc2n1CCCN1CCC(n2c(=O)[nH]c3cc(Cl)ccc32)CC1", "note": "[Domperidone]", "values": [
      {"measurement": "inhibition at 10 µM", "setting": "[1]; Vero", "result": 93, "unit": "%"},
      {"measurement": "viability at 48 h, 2.5 µM", "setting": "[2]; Host cell viability (%)", "result": 94, "unit": "%"},
      {"measurement": "viability at 48 h, 25 µM", "setting": "[2]; Host cell viability (%)", "result": 83, "unit": "%"},
      {"measurement": "inhibition at 2.5 µM", "setting": "[3]; [6]", "result": -7.2, "unit": "%"},
      {"measurement": "inhibition at 25 µM", "setting": "[3]; HFF", "result": 77, "unit": "%"},
      {"measurement": "viability at 48 h, 10 µM", "setting": "[4]", "result": 94, "unit": "%"}
    ]},
    {"smiles": "COc1ccc(Cl)cc1NC(=O)Nc1cc(C)nc2ccccc12", "note": "[TCMDC-125497]", "values": [
      {"measurement": "Parasite inhibition (%)", "setting": "[1]; [5]", "result": 106, "unit": "%"},
      {"measurement": "Host cell viability (%)", "setting": "HFF cells; 2.5 µM", "result": 99, "unit": "%"},
      {"measurement": "Host cell viability (%)", "setting": "HFF cells; 25 µM", "result": 78, "unit": "%"},
      {"measurement": "Parasite inhibition (%)", "setting": "[3]; [8]", "result": 20, "unit": "%"},
      {"measurement": "Parasite inhibition (%)", "setting": "[3]; [9]", "result": 113, "unit": "%"},
      {"measurement": "Host Viability (%)", "setting": "Vero cells; 10 µM", "result": 82, "unit": "%"}
    ]},
    {"smiles": "OCCN1CCN(CCCN2c3ccccc3Sc3ccc(C(F)(F)F)cc32)CC1", "note": "[FLUPHENAZINE]", "values": [
      {"measurement": "viability at 48 h, 2.5 µM", "setting": "[2]; Host cell viability (%)", "result": 104, "unit": "%"},
      {"measurement": "viability at 48 h, 25 µM", "setting": "[2]; Host cell viability (%)", "result": 84, "unit": "%"},
      {"measurement": "viability at 48 h, 10 µM", "setting": "[4]", "result": 83, "unit": "%"}
    ]},
    {"smiles": "O=C1[C@H]2CCCC[C@H]2C(=O)N1CCCCN1CCN(c2nsc3ccccc23)CC1", "note": "[Perospirone]", "values": [
      {"measurement": "inhibition at 10 µM", "setting": "[1]; [5]", "result": 100, "unit": "%"},
      {"measurement": "viability at 48 h, 2.5 µM", "setting": "[2]; Host cell viability (%)", "result": 102, "unit": "%"},
      {"measurement": "viability at 48 h, 25 µM", "setting": "[2]; Host cell viability (%)", "result": 101, "unit": "%"},
      {"measurement": "inhibition at 2.5 µM", "setting": "[3]; [6]", "result": 4.5, "unit": "%"},
      {"measurement": "inhibition at 25 µM", "setting": "[3]; [7]", "result": 59, "unit": "%"},
      {"measurement": "viability at 48 h, 10 µM", "setting": "[4]", "result": 96, "unit": "%"}
    ]},
    {"smiles": "Cc1ccc(C(=O)c2cc(/C=C/C(=O)NO)n(C)c2)cc1", "note": "[MC-1293]", "values": [
      {"measurement": "Parasite inhibition (%)", "setting": "[1]; [5]", "result": 103, "unit": "%"},
      {"measurement": "Host cell viability (%)", "setting": "HFF cells; 2.5 μM, 48 h, HFF cells", "result": 98, "unit": "%"},
      {"measurement": "Host cell viability (%)", "setting": "HFF cells; 25 μM, 48 h, HFF cells, compared with DMSO", "result": 95, "unit": "%"},
      {"measurement": "Parasite inhibition (%)", "setting": "[3]; [8]", "result": 12, "unit": "%"},
      {"measurement": "Parasite inhibition (%)", "setting": "[3]; [9]", "result": 95, "unit": "%"},
      {"measurement": "Host Viability (%)", "setting": "Vero cells; 10 μM, 48 h, Vero cells, DMSO = 100%", "result": 85, "unit": "%"}
    ]},
    {"smiles": "CC(C)[C@H](NC(=O)CNC(=O)OC(C)(C)C)C(=O)N[C@H](C=O)C(C)C", "note": "[N-{[(2-Methyl-2-propanyl)oxy]carbonyl}glycyl-N-[(2S)-3-methyl-1-oxo-2-butanyl]-L-valinamide] (Boc-Gly-Val-Val-aldehyde)", "values": [
      {"measurement": "inhibition at 10 µM", "setting": "[1]; [5]", "result": 105, "unit": "%"},
      {"measurement": "viability at 48 h, 10 µM", "setting": "[4]", "result": 106, "unit": "%"}
    ]}
  ]
}
